Reference: patent US6958318B2, “Recombinant bacterial cells for delivery of PNP to tumor cells” (The UAB Research Foundation, priority 1993, dated 2005)
“And” between values parts separate entries of the source, which are not always exact repeats. Equal entries are not always repeated. “Also recorded” adds a separate entry of the source. Where two headings read alike, the source gives them in different places.

Key:
E. coli PNP [1] = target: T1, E. coli PNP (Escherichia coli, UniProt P0ABP8); type: biochemical
human PNP = target: T2, human PNP (Homo sapiens, UniProt P00491); experiment: Cleavage of purine analog nucleosides by human PNP (HPLC); type: biochemical
T2 sequence (P00491 1-289): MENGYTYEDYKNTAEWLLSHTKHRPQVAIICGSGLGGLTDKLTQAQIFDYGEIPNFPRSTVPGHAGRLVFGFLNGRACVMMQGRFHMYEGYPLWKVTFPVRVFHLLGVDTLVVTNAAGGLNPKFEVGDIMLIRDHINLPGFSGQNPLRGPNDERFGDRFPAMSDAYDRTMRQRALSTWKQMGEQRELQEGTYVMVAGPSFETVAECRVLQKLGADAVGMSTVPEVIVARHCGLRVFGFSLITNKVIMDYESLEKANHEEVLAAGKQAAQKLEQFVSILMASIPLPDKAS

Mel-1 cells = experiment: Wild type melanoma cell viability; type: cell-based, human; details: concentrations as high as 50 μg/ml, five days
[2] = system: T-84 colon carcinoma cells; experiment: Killing of T-84 cells transfected with SV-PNP (DOTAP/DOPE); type: cell-based, human; details: 30 μg/ml, day 6
From the text: To eliminate possible toxicity associated with the non-hydrolyzable cationic lipid component of the LipofectinJ, an alternative liposome transfection vehicle was used in the killing experiments. A liposome vehicle consisting of a 1:1 (weight/weight) mixture of the cationic lipid DOTAP (1,2-dioleoyloxy-3-(trimethylammonium)-propane) and the neutral lipid DOPE (dioleoyl-phosphatidylethanolamine) (Avanti Polar Lipids) display transfection properties similar to LipofectinJ, but with less toxicity (data not shown). DOTAP/DOPE liposomes were prepared by mixing 0.5 mg of DOTAP and 0.5 mg of DOPE and evaporating the chloroform solvent. Following the addition of 500 μl of cyclohexane, the mixture was placed on dry ice and lyophilized. One ml of sterile water was added to the powdered lipids and the solution was vortexed every 5 minutes for 30 minutes. T-84 or Mel-1 cells were seeded at 30% confluency in 24-well plates and allowed to grow overnight. […]
In cells that received the PNP or control plasmids, the media was changed two days after transfection and MeP-dR (6-methylpurine-deoxyriboside) added to the appropriate wells to a final concentration of 30 μg/ml. […] Two days later (day 6), the cells were washed once with PBS, resuspended, and counted in a 20% solution of trypan blue reagent (Trypan Blue Stain 0.4%, Gibco-BRL, Gaithersburg, Md.) using a hemacytometer. […]

[3] = system: D54 parental tumor cells (D54-wt); experiment: Wild-type D54 glioma tumors in nude mice; type: in vivo
Method: Female athymic nude mice (nu/nu) were implanted sc with 2×10^7 cells of either D54 parental tumor cells (D54-wt) or D54 tumor cells that had been transduced with the E. coli PNP (D54-PNP). After the tumors had grown to approximately 150 mg, they were treated ip with either vehicle or 67 mg/kg of MeP-dR (IP) once a day for 3 days (days 6, 7 and 8 after implantation). The tumor sizes were measured twice a week after treatment.
A confirmation experiment was set up exactly as described above, except that animals were treated with two doses of MeP-dR (45 and 67 mg/kg) (FIGS. 10 and 11). The results of this experiment were similar (Table V). There were 8 of 10 complete regressions in mice bearing the D54-PNP tumors that were treated with 67 mg/kg of MeP-dR. In 4 mice the tumors subsequently returned and grew. There were still 4 of 10 tumor-free survivors 60 days after the treatment had stopped. […] There were 2 of 10 complete regressions and 3 partial responses. […] The delay in the time required to double twice due to treatment with MeP-dR was 5 to 6 days in the non-transduced tumors and greater than 24 days in transduced tumors. In this experiment, the growth rate of the D54-PNP tumors was considerably slower than it was in the first experiment. There was no change in the growth rate of the D54-wt tumors. The reason for the slow growth rate of the D54-PNP tumors in this experiment is not known. […] (In other words, if a tumor was too small to measure, it was not included in the average size). This means that the overall tumor regressions in the D54 PNP group are actually much more pronounced than they appear in FIGS. 8-11.

E. coli PNP [4] = target: T1, E. coli PNP; type: biochemical; remark: listed apart in the source

T1 sequence (P0ABP8 2-239): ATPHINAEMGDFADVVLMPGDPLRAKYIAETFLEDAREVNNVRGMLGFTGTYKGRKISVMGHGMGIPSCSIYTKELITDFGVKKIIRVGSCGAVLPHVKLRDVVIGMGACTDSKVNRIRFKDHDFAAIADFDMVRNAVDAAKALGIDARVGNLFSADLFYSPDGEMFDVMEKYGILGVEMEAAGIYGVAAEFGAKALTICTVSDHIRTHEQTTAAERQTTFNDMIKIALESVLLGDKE

Cc1ncnc2c1ncn2[C@H]1C[C@H](O)[C@@H](CO)O1 [MeP-dR, 9-(β-D-2-deoxyerythropentofuranosyl)-6-methylpurine]
Percent of substrate cleaved by E. coli PNP, 100 μM (E. coli PNP [1]): 91(86)45(21) Percent and 93(87)29(24) Percent
Percent of substrate cleaved by E. coli PNP, 1 mM (E. coli PNP [1]): 91(86)45(21) Percent and 93(87)29(24) Percent
Substrate quality for bacterial (E. coli) PNP (E. coli PNP [1]): good substrates
Percent of substrate cleaved by Human PNP, 100 μM (human PNP): 0(86) Percent and 0%
Percent of substrate cleaved by Human PNP, 1 mM (human PNP): 0(47) Percent and 0%
Substrate quality for mammalian (human) PNP (human PNP): poor substrates
Effect on Mel-1 cells (Mel-1 cells): unaffected
Killing of T-84 cells transfected with SV-PNP [2]: susceptible to killing
Effect on wild-type D54 tumors, in words ([3]; 45 or 67 mg/kg): little effect; also recorded: no partial of complete remissions; also recorded: did not affect parental D54 tumor cell growth
Days Delay (T-C) ([3]; Table IV, 67 mg/kg): 7 days
Doubling time ([3]; Table IV, 67 mg/kg): 21
Nonspecific Deaths/Total ([3]; Table IV, 67 mg/kg): 1/6
Regressions Partial ([3]; Table IV, 67 mg/kg): 0/6
Tumor-free Survival ([3]; Table IV, 67 mg/kg): 0/6
Regressions Complete ([3]; Table IV, 67 mg/kg IP once a day for three days): 0/6
Days Delay (T-C) ([3]; Table V, 45 mg/kg): 5 days
Doubling time ([3]; Table V, 45 mg/kg): 17
Nonspecific Deaths/Total ([3]; Table V, 45 mg/kg): 0/10
Regressions Partial ([3]; Table V, 45 mg/kg): 0/10
Tumor-free Survival ([3]; Table V, 45 mg/kg): 0/10
Regressions Complete ([3]; Table V, 45 mg/kg IP once a day for three days): 0/10
Days Delay (T-C) ([3]; Table V, 67 mg/kg): 6 days
Doubling time ([3]; Table V, 67 mg/kg): 18
Nonspecific Deaths/Total ([3]; Table V, 67 mg/kg): 0/10
Regressions Partial ([3]; Table V, 67 mg/kg): 0/10
Tumor-free Survival ([3]; Table V, 67 mg/kg): 0/10
Regressions Complete ([3]; Table V, 67 mg/kg IP once a day for three days): 0/10
Background activity in cell free extracts (E. coli PNP [4]; non-transduced 16/C and B16 cells): 0
E. coli PNP activity in cell free extracts (E. coli PNP [4]; transduced 16/C cells, n=6): 10.7 nmoles MeP-dR converted/mg cell protein/hr
E. coli PNP activity in cell free extracts (E. coli PNP [4]; transduced B16 cells, n=2): 2.4 nmoles MeP-dR converted/mg cell protein/hour
